Entries after “also recorded” stand apart in the source; their conditions may differ.
What was measured:
Assay type in all cases: cell-based
[1] = system: P-selectin (CD62P) on human platelet surface; test: Flow cytometry, P-selectin (CD62P) exposure, α-granule release; conditions: 0.025 U/ml thrombin, 10 μM STO-609
Experimental: Flow cytometric analysis was performed on a FACScan (Becton Dickinson). Washed human platelets (2·10^5 platelets/μl) were pre-incubated with DMSO/STO-609 for 2 min and then treated with or without thrombin (0.025 U/ml) in the presence of excessive amounts of FITC-conjugated monoclonal antibody (anti-CD62P (BD Biosciences) or PAC-1 (BD Biosciences)) at room temperature. The samples were then fixed at 4° C. for 30 min with 2% paraformaldehyde. The levels of P-selectin expression and PAC1 binding were expressed as the percentages of cells positive for anti-CD62P and PAC-1, respectively. The negative cut-off for each antibody was set using resting platelets that gave less than 5% of cells positive for binding of anti-CD62P or PAC-1. In addition, the effect of STO-609 on α-granule release was determined by measuring the exposure on platelet surface of P-selectin (CD62P).

[2] = system: TXB2 formation in human platelets; test: Thromboxane B2 assay in platelet supernatants; conditions: 10 μM STO-609, 0.1 U/ml thrombin for 5 min
Experimental: After 2 min pre-incubation with 10 μM STO-609 or DMSO, washed platelets were treated with 0.1 U/ml thrombin for 5 min. Negative controls corresponded to platelets activated by thrombin in the presence of 1 mM acetylsalicylic acid (ASA). Platelet suspensions were pelleted (quick speed), and TXB2 in the supernatants was assayed according to the manufacturers instructions (Enzo Life Sciences).

[3] = system: AMPK Thr172 phosphorylation in human platelets; test: Western blot of AMPK Thr172 phosphorylation in human platelets; conditions: 10 μM STO-609, thrombin-treated human platelets (not shown)
Experimental: Washed human platelets (used in in vitro studies). Platelets were obtained from adult healthy volunteers in accordance with the Ethics Commission of our institution (Commission d'Ethique Biomédicale Hospitalo-Facultaire, Université catholique de Louvain). Whole blood was collected with butterfly needle 21G into Sodium Citrate 1:10 solution (S-monovette). Platelet-rich plasma (PRP) was obtained by 15 min centrifugation at 330 g. The platelets pellet was then washed in Tyrode modified buffer (135 mM NaCl, 12 mM NaHCO3, 1 mM Sodium Citrate, 2.9 mM KCl, 0.3 mM Na2HPO4, 1 mM MgCl2, 5 mM D-glucose, 10 mM Hepes, 0.35% bovine serum albumin (BSA), pH 7.4 at 37° C.) and resuspended to a density of 2.5 10^5 platelets/μl for the measurement of intracellular Ca^2+ or platelet aggregation. For Western Blot analysis, PRP with eptifibatide 4 μg/ml (Integriline, GlaxoSmithKline) and ectonucleotidase apyrase (grade I) 0.5 U/ml was layered over a density barrier of iodixanol (Optiprep®) that allowed the erythrocytes and leucocytes to pellet during centrifugation at 350 g for 15 min. […] Bound antibodies were detected by enhanced chemiluminescence (Thermofisher). […] Band intensities were quantified by scanning and processing image intensities with the program ImageJ (1.33 for Mac OS X). The quantification of immunoblots presented in results was obtained after normalization using the internal loading control.

Structure (SMILES): O=C(O)c1ccc2c3c1cccc3c(=O)n1c3ccccc3nc21 [STO-609]
- CD62P detection per platelet in response to thrombin (α-granule release) [1]: significantly inhibited; also recorded: prevents
- thrombin-induced TXB2 formation [2]: not affect
- AMPK activation, as judged by phosphorylation of AMPK Thr172 [3]: markedly reduced
